Results taken from patent US10370412B2, “Beta-hairpin peptidomimetics” (Polyphor AG, priority 2013, dated 2019).
Where a SMILES comes first, the peptide text is derived from it. [ ]: non-standard residue; d: D form. Pro(3S-OH) = O=C(O)[C@H]1NCC[C@@H]1O; Dap(CONH2) = NC(=O)NC[C@H](N)C(=O)O; Cha = N[C@@H](CC1CCCCC1)C(=O)O; aThr = C[C@H](O)[C@H](N)C(=O)O; Chg = N[C@H](C(=O)O)C1CCCCC1; Tle = CC(C)(C)[C@H](N)C(=O)O; dDab = NCC[C@@H](N)C(=O)O; hSer = N[C@@H](CCO)C(=O)O; Orn = NCCC[C@H](N)C(=O)O; Api = NC1(C(=O)O)CCNCC1; Dab = NCC[C@H](N)C(=O)O; Nva = CCC[C@H](N)C(=O)O

System: human red blood cells (hRBC)
Format: cell-based
Details: red cells of human, 1 h
Experimental: The peptides were tested for their hemolytic activity against human red blood cells (hRBC). Fresh hRBC were washed three times with phosphate buffered saline (PBS) and centrifuged for 10 min at 2000×g. Compounds (100 μg/ml) were incubated with 20% hRBC (v/v) for 1 h at 37° C. and shaking at 300 rpm. The final erythrocyte concentration was approximately 0.9×10^9 cells/ml. A value of 0% and 100% cell lyses, respectively, was determined by incubation of hRBC in the presence of PBS containing 0.001% acetic acid and 2.5% Triton X-100 in H2O, respectively. The samples were centrifuged, the supernatants were 8-fold diluted in PBS buffer and the optical densities (OD) were measured at 540 nm. The 100% lyses value (OD540H2O) gave an OD540 of approximately 0.5-1.0. Percent hemolysis was calculated as follows: (OD540peptide/OD540H2O)×100%.

C[C@@H]1NC(=O)[C@H](C(C)(C)C)NC(=O)[C@H](CCO)NC(=O)[C@H](Cc2c[nH]c3ccccc23)NC(=O)[C@H](CCN)NC(=O)[C@@H](CCN)NC(=O)[C@H](CCCN)NC(=O)[C@H](CCN)NC(=O)[C@H](Cc2ccc(O)cc2)NC(=O)[C@H](Cc2c[nH]cn2)NC(=O)[C@H](Cc2c[nH]c3ccccc23)NC(=O)[C@@H]2CCCN2C(=O)[C@H]2CCCN2C(=O)[C@H](CO)NC1=O [Ex. 1, cyclo(-Trp-His-Tyr-Dab-Orn-^DDab-Dab-Trp-Hse-tBuGly-Ala-Ser-^DPro-Pro-)] (cyclo(WHY[Dab][Orn][dDab][Dab]W[hSer][Tle]AS[dP]P))
Hemolysis at 100 μg/ml: 1%

C[C@@H]1NC(=O)[C@H](C(C)(C)C)NC(=O)[C@H](CCN)NC(=O)[C@H](Cc2c[nH]c3ccccc23)NC(=O)[C@H](CCN)NC(=O)[C@@H](CCN)NC(=O)[C@H](CCCCN)NC(=O)[C@H](CCN)NC(=O)[C@H](CC2CCCCC2)NC(=O)[C@H](Cc2c[nH]c3ccccc23)NC(=O)[C@H](Cc2c[nH]c3ccccc23)NC(=O)[C@@H]2CCCN2C(=O)[C@H]2CCCN2C(=O)[C@H](CO)NC1=O [Ex. 11, cyclo(-Trp-Trp-Cha-Dab-Lys-^DDab-Dab-Trp-Dab-tBuGly-Ala-Ser-^DPro-Pro-)] (cyclo(WW[Cha][Dab]K[dDab][Dab]W[Dab][Tle]AS[dP]P))
Hemolysis at 100 μg/ml: 1%

CC(C)(C)[C@@H]1NC(=O)[C@H](CCN)NC(=O)[C@H](Cc2c[nH]c3ccccc23)NC(=O)[C@H](CCN)NC(=O)C2(CCNCC2)NC(=O)[C@H](CCCN)NC(=O)[C@H](CCN)NC(=O)[C@H](CC2CCCCC2)NC(=O)[C@H](Cc2c[nH]cn2)NC(=O)[C@H](Cc2c[nH]c3ccccc23)NC(=O)[C@@H]2[C@@H](O)CCN2C(=O)[C@H]2CCCN2C(=O)[C@H](CO)NC(=O)[C@H](CO)NC1=O [Ex. 14, cyclo(-Trp-His-Cha-Dab-Orn-Pip-Dab-Trp-Dab-tBuGly-Ser-Ser-^DPro-Pro((3S)OH)—)] (cyclo(WH[Cha][Dab][Orn][Api][Dab]W[Dab][Tle]SS[dP][Pro(3S-OH)]))
Hemolysis at 100 μg/ml: 4%

CC(C)(C)[C@@H]1NC(=O)[C@H](CCN)NC(=O)[C@H](Cc2c[nH]c3ccccc23)NC(=O)[C@H](CCN)NC(=O)[C@@H](CCN)NC(=O)[C@H](CCCN)NC(=O)[C@H](CCN)NC(=O)[C@H](CC2CCCCC2)NC(=O)[C@H](Cc2c[nH]c3ccccc23)NC(=O)[C@H](Cc2c[nH]c3ccccc23)NC(=O)[C@@H]2[C@@H](O)CCN2C(=O)[C@H]2CCCN2C(=O)[C@H](CO)NC(=O)[C@H](CO)NC1=O [Ex. 15, cyclo(-Trp-Trp-Cha-Dab-Orn-^DDab-Dab-Trp-Dab-tBuGly-Ser-Ser-^DPro-Pro((3S)OH)—)] (cyclo(WW[Cha][Dab][Orn][dDab][Dab]W[Dab][Tle]SS[dP][Pro(3S-OH)]))
Hemolysis at 100 μg/ml: 0%

COc1ccc(C[C@@H]2NC(=O)[C@H](Cc3c[nH]cn3)NC(=O)[C@H](Cc3c[nH]c4ccccc34)NC(=O)[C@@H]3CCCN3C(=O)[C@H]3CCCN3C(=O)[C@H](CO)NC(=O)[C@H](C)NC(=O)[C@H](C(C)(C)C)NC(=O)[C@H](CCO)NC(=O)[C@H](Cc3c[nH]c4ccccc34)NC(=O)[C@H](CCN)NC(=O)[C@@H](CCN)NC(=O)[C@H](CCCN)NC(=O)[C@H](CCN)NC2=O)cc1 [Ex. 16, cyclo(-Trp-His-Tyr(Me)-Dab-Orn-^DDab-Dab-Trp-Hse-tBuGly-Ala-Ser-^DPro-Pro-)] (cyclo(WHY(Me)[Dab][Orn][dDab][Dab]W[hSer][Tle]AS[dP]P))
Hemolysis at 100 μg/ml: 1%

CC(C)C[C@@H]1NC(=O)[C@@H]2CCCN2C(=O)[C@H]2CCCN2C(=O)[C@H]([C@H](C)O)NC(=O)[C@H](C)NC(=O)[C@H](C(C)(C)C)NC(=O)[C@H](CCN)NC(=O)[C@H](Cc2c[nH]c3ccccc23)NC(=O)[C@H](CCN)NC(=O)[C@@H](CCN)NC(=O)[C@H](CCCN)NC(=O)[C@H](CCN)NC(=O)[C@H](CC2CCCCC2)NC(=O)[C@H](Cc2c[nH]cn2)NC1=O [Ex. 17, cyclo(-Leu-His-Cha-Dab-Orn-^DDab-Dab-Trp-Dab-tBuGly-Ala-alloThr-^DPro-Pro-)] (cyclo(LH[Cha][Dab][Orn][dDab][Dab]W[Dab][Tle]A[aThr][dP]P))
Hemolysis at 100 μg/ml: 5%

C[C@@H]1NC(=O)[C@H](C(C)(C)C)NC(=O)[C@H](CCN)NC(=O)[C@H](Cc2c[nH]c3ccccc23)NC(=O)[C@H](CCN)NC(=O)[C@@H](CCN)NC(=O)[C@H](CCCN)NC(=O)[C@H](CCN)NC(=O)[C@H](Cc2ccc(O)cc2)NC(=O)[C@H](Cc2c[nH]cn2)NC(=O)[C@H](Cc2c[nH]c3ccccc23)NC(=O)[C@@H]2CCCN2C(=O)[C@H]2CCCN2C(=O)[C@H](CO)NC1=O [compound 2, cyclo(-Trp-His-Tyr-Dab-Orn-^DDab-Dab-Trp-Dab-tBuGly-Ala-Ser-^DPro-Pro-)] (cyclo(WHY[Dab][Orn][dDab][Dab]W[Dab][Tle]AS[dP]P))
Hemolysis at 100 μg/ml: 1%

CCC[C@@H]1NC(=O)[C@H](CCN)NC(=O)[C@H](Cc2c[nH]c3ccccc23)NC(=O)[C@H](CCN)NC(=O)[C@@H](CCN)NC(=O)[C@H](CCCN)NC(=O)[C@H](CCN)NC(=O)[C@H](CC2CCCCC2)NC(=O)[C@H](Cc2c[nH]cn2)NC(=O)[C@H](Cc2c[nH]c3ccccc23)NC(=O)[C@@H]2CCCN2C(=O)[C@H]2CCCN2C(=O)[C@H](CO)NC(=O)[C@H](C)NC1=O [compound 3, cyclo(-Trp-His-Cha-Dab-Orn-^DDab-Dab-Trp-Dab-Nva-Ala-Ser-^DPro-Pro-)] (cyclo(WH[Cha][Dab][Orn][dDab][Dab]W[Dab][Nva]AS[dP]P))
Hemolysis at 100 μg/ml: 3%

CC(C)[C@@H]1NC(=O)[C@H](C(C)(C)C)NC(=O)[C@H](CCN)NC(=O)[C@H](Cc2c[nH]c3ccccc23)NC(=O)[C@H](CCN)NC(=O)[C@@H](CCN)NC(=O)[C@H](CCCN)NC(=O)[C@H](CCN)NC(=O)[C@H](CC2CCCCC2)NC(=O)[C@H](Cc2c[nH]cn2)NC(=O)[C@H](Cc2c[nH]c3ccccc23)NC(=O)[C@@H]2CCCN2C(=O)[C@H]2CCCN2C(=O)[C@H](CO)NC1=O [compound 4, cyclo(-Trp-His-Cha-Dab-Orn-^DDab-Dab-Trp-Dab-tBuGly-Val-Ser-^DPro-Pro-)] (cyclo(WH[Cha][Dab][Orn][dDab][Dab]W[Dab][Tle]VS[dP]P))
Hemolysis at 100 μg/ml: 5%

CC(C)C[C@@H]1NC(=O)[C@@H]2CCCN2C(=O)[C@H]2CCCN2C(=O)[C@H](CO)NC(=O)[C@H](C)NC(=O)[C@H](C(C)(C)C)NC(=O)[C@H](CCN)NC(=O)[C@H](Cc2c[nH]c3ccccc23)NC(=O)[C@H](CCN)NC(=O)[C@@H](CCN)NC(=O)[C@H](CCCN)NC(=O)[C@H](CCN)NC(=O)[C@H](Cc2ccc(O)cc2)NC(=O)[C@H](Cc2c[nH]cn2)NC1=O [compound 5, cyclo(-Leu-His-Tyr-Dab-Orn-^DDab-Dab-Trp-Dab-tBuGly-Ala-Ser-^DPro-Pro-)] (cyclo(LHY[Dab][Orn][dDab][Dab]W[Dab][Tle]AS[dP]P))
Hemolysis at 100 μg/ml: 0%

CC(C)C[C@@H]1NC(=O)[C@@H]2CCCN2C(=O)[C@H]2CCCN2C(=O)[C@H](CO)NC(=O)[C@H](CNC(N)=O)NC(=O)[C@H](C(C)(C)C)NC(=O)[C@H](CCN)NC(=O)[C@H](Cc2c[nH]c3ccccc23)NC(=O)[C@H](CCN)NC(=O)C2(CCNCC2)NC(=O)[C@H](CCCN)NC(=O)[C@H](CCN)NC(=O)[C@H](CC2CCCCC2)NC(=O)[C@H](Cc2c[nH]cn2)NC1=O [compound 6, cyclo(-Leu-His-Cha-Dab-Orn-Pip-Dab-Trp-Dab-tBuGly-Alb-Ser-^DPro-Pro-)] (cyclo(LH[Cha][Dab][Orn][Api][Dab]W[Dab][Tle][Dap(CONH2)]S[dP]P))
Hemolysis at 100 μg/ml: 3%

CC(C)[C@@H]1NC(=O)[C@@H]2CCCN2C(=O)[C@H]2CCCN2C(=O)[C@H](CO)NC(=O)[C@H](C)NC(=O)[C@H](C(C)(C)C)NC(=O)[C@H](CCN)NC(=O)[C@H](Cc2c[nH]c3ccccc23)NC(=O)[C@H](CCN)NC(=O)[C@@H](CCN)NC(=O)[C@H](CCCN)NC(=O)[C@H](CCN)NC(=O)[C@H](Cc2ccc(O)cc2)NC(=O)[C@H](Cc2c[nH]cn2)NC1=O [compound 7, cyclo(-Val-His-Tyr-Dab-Orn-^DDab-Dab-Trp-Dab-tBuGly-Ala-Ser-^DPro-Pro-)] (cyclo(VHY[Dab][Orn][dDab][Dab]W[Dab][Tle]AS[dP]P))
Hemolysis at 100 μg/ml: 1%

CCC[C@@H]1NC(=O)[C@@H]2CCCN2C(=O)[C@H]2CCCN2C(=O)[C@H](CO)NC(=O)[C@H](C)NC(=O)[C@H](C(C)(C)C)NC(=O)[C@H](CCN)NC(=O)[C@H](Cc2c[nH]c3ccccc23)NC(=O)[C@H](CCN)NC(=O)[C@@H](CCN)NC(=O)[C@H](CCCN)NC(=O)[C@H](CCN)NC(=O)[C@H](Cc2ccc(O)cc2)NC(=O)[C@H](Cc2c[nH]cn2)NC1=O [compound 8, cyclo(-Nva-His-Tyr-Dab-Orn-^DDab-Dab-Trp-Dab-tBuGly-Ala-Ser-^DPro-Pro-)] (cyclo([Nva]HY[Dab][Orn][dDab][Dab]W[Dab][Tle]AS[dP]P))
Hemolysis at 100 μg/ml: 1%

C[C@@H]1NC(=O)[C@H](C2CCCCC2)NC(=O)[C@H](CCN)NC(=O)[C@H](Cc2c[nH]c3ccccc23)NC(=O)[C@H](CCN)NC(=O)[C@@H](CCN)NC(=O)[C@H](CCCCN)NC(=O)[C@H](CCN)NC(=O)[C@H](CC2CCCCC2)NC(=O)[C@H](Cc2c[nH]c3ccccc23)NC(=O)[C@H](Cc2c[nH]c3ccccc23)NC(=O)[C@@H]2CCCN2C(=O)[C@H]2CCCN2C(=O)[C@H](CO)NC1=O [compound 10, cyclo(-Trp-Trp-Cha-Dab-Lys-^DDab-Dab-Trp-Dab-Chg-Ala-Ser-^DPro-Pro-)] (cyclo(WW[Cha][Dab]K[dDab][Dab]W[Dab][Chg]AS[dP]P))
Hemolysis at 100 μg/ml: 1%
